± gives the standard deviation of the averaged measurements.
Tests used:
Experiment in all cases: level (log10 ratio to DMSO vehicle control); higher = higher biomarker level / cell amount than vehicle control
[1] = compound: OCC(F)(F)C(F)(F)C(F)(F)C(F)(F)C(F)(F)C(F)(F)C(F)(F)C(F)(F)CO [1H,1H,10H,10H-Perfluorodecane-1,10-diol]; details: in DMSO
Method: (§1)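 BioMAP Diversity Plus panel of 12 human primary cell co-culture systems (3C, 4H, LPS, SAg, BT, BF4T, BE3C, CASM3C, HDF3CGF, KF3CT, MyoF, Mphg). Compounds were added 1 h before stimulation and left for 24 h (MyoF 48 h; BT 72 h for soluble read-outs or 6 d for IgG). Biomarkers were read by ELISA, cytotoxicity by SRB, PBMC viability and proliferation by Alamar Blue. Each well value was divided by the mean of 8 DMSO control wells on the same plate and log10 transformed; duplicate blinded samples were tested at 4 concentrations.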

[2] = compound: OCCCC(F)(F)C(F)(F)C(F)(F)C(F)(F)C(F)(F)C(F)(F)C(F)(F)C(F)(F)F [3-(Perfluorooctyl)propanol]; details: 6700 nM; in DMSO
Method: as §1

[3] = compound: FC(F)(I)C(F)(F)C(F)(F)C(F)(F)C(F)(F)C(F)(F)I [1,6-Diiodoperfluorohexane]; details: 6700 nM; in DMSO
Method: as §1

[4] = compound: O=C(O)C(F)(F)C(F)(F)C(F)(F)C(F)(F)C(F)(F)C(F)(F)C(F)(F)F [Ammonium perfluorooctanoate]; details: in DMSO
Method: as §1

[5] = compound: O=S(=O)(O)CCC(F)(F)C(F)(F)C(F)(F)C(F)(F)F [4:2 Fluorotelomer sulfonic acid]; details: in DMSO
Method: as §1

[6] = compound: C=CC(=O)OCC(F)(F)C(F)(F)C(F)(F)C(F)(F)COC(=O)C=C [1H,1H,6H,6H-Perfluorohexane-1,6-diol diacrylate]; details: 6700 nM; in DMSO
Method: as §1

[7] = compound: CN(Cc1cnc2nc(N)nc(N)c2n1)c1ccc(C(=O)N[C@@H](CCC(=O)O)C(=O)O)cc1 [Methotrexate]; details: in DMSO
Method: as §1

[8] = compound: O=C(O)C(F)(F)C(F)(F)C(F)(F)C(F)(F)C(F)(F)C(F)(F)C(F)(F)F [Perfluorooctanoic acid]; details: in DMSO
Method: as §1

Test System	level (log10) ([1]; 6700 nM)	level (log10) ([1]; 20000 nM)	level (log10) ([1]; 60000 nM)	level (log10) [2]	level (log10) [3]	level (log10) ([4]; 6700 nM)	level (log10) ([4]; 20000 nM)	level (log10) ([4]; 60000 nM)	level (log10) ([5]; 6700 nM)	level (log10) ([5]; 20000 nM)	level (log10) ([5]; 60000 nM)	level (log10) [6]	level (log10) ([7]; 1500 nM)	level (log10) ([7]; 4400 nM)	level (log10) ([7]; 13000 nM)	level (log10) ([7]; 40000 nM)	level (log10) ([8]; 6700 nM)	level (log10) ([8]; 20000 nM)	level (log10) ([8]; 60000 nM)
3C:CXCL9/MIG	-0.0145 ± 0.011	-0.016 ± 0.0071	-0.007	-0.0075 ± 0.0092	-0.002	-0.006 ± 0.02	0.002 ± 0.0099	0.0285 ± 0.013	-0.0005 ± 0.005	0.005 ± 0.011	0.001 ± 0.014	0.002 ± 0.0042	0.0075 ± 0.0092	0.001 ± 0.016	-0.0015 ± 0.005	0.0145 ± 0.0064	0.001 ± 0.021	0.0095 ± 0.023	0.0265 ± 0.022
BF4T:MMP-1	-0.003 ± 0.011	-0.0505 ± 0.011	-0.007	0.022 ± 0.0099	-0.006	-0.0025 ± 0.016	-0.004 ± 0.014	0.0105 ± 0.012	-0.002 ± 0.017	-0.0115 ± 0.005	0.0055 ± 0.0092	0.0365 ± 0.018	0.0195 ± 0.015	0.0005 ± 0.016	-0.012 ± 0.03	0.0015 ± 0.011	-0.002 ± 0.0057	-0.0005 ± 0.0078	0.0265 ± 0.018
LPS:CD62E/E-Selectin	-0.064 ± 0.04	-0.0475 ± 0.0021	-0.038	-0.148 ± 0.079	-0.024	-0.0015 ± 0.0092	-0.012 ± 0.0028	0.0025 ± 0.013	0.027 ± 0.028	0.027 ± 0.041	0.0285 ± 0.066	-0.0155 ± 0.0035	-0.01 ± 0.024	-0.0185 ± 0.0021	0.005 ± 0.0014	0.005 ± 0.025	0.009 ± 0.017	-0.01 ± 0.02	0.029 ± 0.016
BE3C:EGFR	-0.031 ± 0.0085	-0.042	-0.102	-0.018 ± 0.0071	-0.015	-0.006 ± 0.0028	0.001 ± 0.028	-0.022 ± 0.013	0.0115 ± 0.00071	-0.009 ± 0.0014	0.002 ± 0.0085	-0.034 ± 0.0099	0.023 ± 0.028	0.002 ± 0.013	0.0085 ± 0.0092	0.0155 ± 0.037	-0.0165 ± 0.012	-0.025 ± 0.011	-0.018 ± 0.037
BE3C:HLA-DR	-0.0495 ± 0.019	-0.174 ± 0.022	-0.517	-0.01 ± 0.023	-0.01	-0.019 ± 0.0071	-0.0325 ± 0.012	-0.068 ± 0.017	-0.013 ± 0.0085	0.003 ± 0.0042	-0.0225 ± 0.0021	-0.048 ± 0.0071	-0.0105 ± 0.00071	-0.0235 ± 0.0064	0.013 ± 0.011	-0.0145 ± 0.022	-0.023 ± 0.0042	-0.0225 ± 0.023	-0.013 ± 0.034
4H:CD106/VCAM-1	-0.0445 ± 0.011	-0.049 ± 0.03	-0.166	0.0065 ± 0.021	-0.052	0.0225 ± 0.0021	0.036 ± 0.0085	0.0215 ± 0.026	-0.039 ± 0.037	0.014 ± 0.0057	-0.0035 ± 0.023	-0.057 ± 0.0057	-0.0045 ± 0.018	-0.0095 ± 0.0021	0.005 ± 0.028	-0.0005 ± 0.011	0.0045 ± 0.022	-0.001 ± 0.034	-0.0165 ± 0.039
LPS:CCL2/MCP-1	-0.0035 ± 0.00071	-0.0135 ± 0.015	0.01	-0.0925 ± 0.13	0.01	-0.0095 ± 0.0035	-0.001 ± 0.031	0.0105 ± 0.0092	0.0065 ± 0.028	0.005 ± 0.0042	0.037 ± 0.017	-0.0285 ± 0.019	-0.0335 ± 0.074	-0.03 ± 0.055	-0.0295 ± 0.1	-0.0565 ± 0.064	-0.0035 ± 0.00071	0.013	0.0525 ± 0.022
BT:B cell Proliferation	0.0155 ± 0.00071	0.0195 ± 0.0078	-0.316	-0.0025 ± 0.0064	-0.019	0.0065 ± 0.047	0.0165 ± 0.012	0.0515 ± 0.026	0.0295 ± 0.047	0.042 ± 0.034	0.0225 ± 0.0078	-0.188 ± 0.0057	-0.0915 ± 0.016	-0.1 ± 0.0085	-0.099 ± 0.0071	-0.052 ± 0.037	0.0195 ± 0.018	0.027 ± 0.021	0.097 ± 0.0099
LPS:CD106/VCAM-1	-0.034 ± 0.028	-0.0485 ± 0.012	-0.052	-0.158 ± 0.17	-0.041	0.001 ± 0.0042	0.0035 ± 0.015	-0.013 ± 0.0028	-0.0065 ± 0.013	-0.006 ± 0.027	-0.0125 ± 0.059	-0.048 ± 0.0099	0.0075 ± 0.03	-0.0065 ± 0.011	0.0085 ± 0.00071	-0.0145 ± 0.005	0.0085 ± 0.0021	-0.006 ± 0.013	-0.0165 ± 0.0035
BE3C:CXCL9/MIG	-0.0105 ± 0.0021	-0.0495 ± 0.0021	-0.53	-0.0045 ± 0.018	0.01	0.008 ± 0.011	-0.003 ± 0.0042	-0.003 ± 0.0028	-0.003 ± 0.0057	-0.005 ± 0.0099	0.0095 ± 0.012	-0.0075 ± 0.011	0.006 ± 0.0071	0.013 ± 0.0028	0.013 ± 0.014	0.01 ± 0.0057	-0.0025 ± 0.0035	-0.0045 ± 0.005	0.002 ± 0.018
BF4T:CD54/ICAM-1	-0.031 ± 0.02	-0.091 ± 0.0071	-0.138	-0.007 ± 0.016	-0.073	-0.009 ± 0.02	-0.016 ± 0.0014	-0.0415 ± 0.023	-0.0085 ± 0.011	-0.0125 ± 0.0092	0.006 ± 0.038	-0.0575 ± 0.0021	0.001 ± 0.0099	-0.0135 ± 0.019	0.009 ± 0.0085	0.0095 ± 0.011	-0.0115 ± 0.0064	-0.0025 ± 0.012	-0.014 ± 0.028
SAg:CD40	-0.0395 ± 0.0078	-0.0625 ± 0.028	-0.081	-0.029 ± 0.025	-0.018	-0.008 ± 0.011	-0.022	-0.0695 ± 0.011	-0.006 ± 0.0071	0.0015 ± 0.019	-0.0225 ± 0.039	-0.0895 ± 0.023	-0.02 ± 0.0042	-0.0525 ± 0.018	-0.0055 ± 0.079	-0.0305 ± 0.088	0.002 ± 0.013	-0.017 ± 0.014	-0.0415 ± 0.012
BT:sIL-2	0.002 ± 0.035	0.0135 ± 0.005	-0.482	-0.0245 ± 0.016	-0.059	-0.046 ± 0.0057	-0.0075 ± 0.074	-0.006 ± 0.1	-0.009 ± 0.059	-0.044 ± 0.037	0.038 ± 0.02	-0.461 ± 0.18	0.0155 ± 0.016	-0.0845 ± 0.11	0.0085 ± 0.035	-0.075 ± 0.035	0.0385 ± 0.11	0.039 ± 0.093	0.046 ± 0.12
BF4T:Keratin 8/18	0.005 ± 0.028	0.027 ± 0.018	-0.024	0.021 ± 0.051	0.024	0.009 ± 0.028	0.013 ± 0.0057	0.017 ± 0.014	0.0015 ± 0.005	-0.0195 ± 0.025	0.017 ± 0.024	0.0065 ± 0.029	0.005 ± 0.038	-0.0385 ± 0.005	-0.006 ± 0.054	0.0155 ± 0.028	-0.0045 ± 0.012	-0.0025 ± 0.0092	0.0025 ± 0.022
BE3C:CD54/ICAM-1	0.004 ± 0.0085	-0.0305 ± 0.0064	-0.232	0.023 ± 0.0071	0.001	-0.01 ± 0.014	-0.0085 ± 0.0021	-0.0015 ± 0.015	-0.004 ± 0.0085	-0.009 ± 0.014	-0.0155 ± 0.0021	-0.021 ± 0.024	0.021 ± 0.014	-0.002 ± 0.013	0.013 ± 0.031	0.0065 ± 0.035	-0.02 ± 0.0085	-0.0085 ± 0.0035	0.0235 ± 0.039
